Source: US5643954A, “Method of preventing and alleviating stress in a healthy mammal in need thereof” (priority 1993, dated 1997)

What was measured:
Corazol convulsions = test: testings with Corazolin (Corazol), mice; assay type: in vivo; details: 150 mg/kg of weight
[1] = testings with Corazolin (Corazol), mice; assay type: in vivo; details: mouse, in vivo; 150 mg/kg of weight; read-out: death of the animals
Corazol twitches = test: comparative interaction test with Corazol, rats; assay type: in vivo; details: M ± m
[2] = orientation motive activity of mice, automated registration of movements; assay type: in vivo, mice (male); details: for Number of movements in 10 min in register: M ± m
Experimental: Experiments were conducted in vivo on male mice weighing 18-22 g and male rats weighing 200-250 g, as well as in vitro on the isolated organs: a guinea pig's ileum and a rat's seminal effervesces.

hexenal sleep = test: comparative interaction test with hexenal, rats; assay type: in vivo; details: for Hexanal sleep duration: M ± m
[3] = system: bioelectric activity of rats' brain; test: spontaneous bioelectrical activity of rats' brain (EEG, implanted electrodes); assay type: in vivo; details: 90 mg/kg
[4] = assay type: in vivo; details: in words

Structure (SMILES)	time to death of the animals (Corazol convulsions) [min]	mortality [1] [%]	Corazol twitches, latent period (Corazol twitches; 100 mg/kg) [min]	Corazol twitches, latent period (Corazol twitches; 200 mg/kg) [min]	Number of movements in 10 min in register ([2]; 100 mg/kg intraperitoneally)	Number of movements in 10 min in register ([2]; 200 mg/kg intraperitoneally)	Number of movements in 10 min in register ([2]; 500 mg/kg intraperitoneally)	motor activity ([2]; in words)	Hexanal sleep duration (hexenal sleep; 100 mg/kg) [min]	Hexanal sleep duration (hexenal sleep; 200 mg/kg) [min]	hexenal sleep (hexenal sleep; in words)	Maximal effect appearance time from the start of experiment [3] [min]	Nature of effect [3]	Nature of effect, effective for [3]	Index, fast activ. ([3]; M ± m) [%]	Index, slow activ. ([3]; M ± m) [%]	tonico-extensor component of Corazol and strychnine twitches and electrical shock [4]
C1CCc2nnnn2CC1 [Corazolin, reference compound]	2 to 4	100															
NCC(CC(=O)O)c1ccccc1 (centres unmarked) [phenibut, reference compound]			53.0 ± 5.4	50.0 ± 2.8	434 ± 4.4	186 ± 8.7	19 ± 3.0	sharply inhibit motor activity as a dose is increased	110.0 ± 8.3	130.0 ± 8.5	prolong hexenal sleep	40	Permanent	over 3 hrs	77 ± 0.9	87 ± 3.1	reduce the tonico-extensor component of Corazol and strychnine twitches and electrical shock
